Reference: patent US11040959B2, “Diprovocims: a new and potent class of TLR agonists” (The Scripps Research Institute, priority 2016, dated 2021)
Where two headings read alike, the source gives them in different places.

Assays:
[1] = tested on: differentiated human THP-1 cells; assay: stimulated release of TNF-α from differentiated human THP-1 cells (ELISA, dose-response); format: cell-based
Summary of the method: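 Human THP-1 cells were PMA-differentiated toward macrophages, and stimulated TNF-α release was measured by ELISA. EC50 values were taken from dose-response curves.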

[2] = tested on: mouse macrophages; assay: stimulated release of TNF-α from mouse macrophages; format: cell-based
Summary of the method: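 EC50 derived from dose-response curves for stimulated TNF-α release from mouse macrophages.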

[3] = Homo sapiens, THP-1, table of 140-146 (four lipid side chains), human THP-1 cells, read-out: EC50 (nM) (THP-1)
[4] = Macrophage, table of 140-146 (four lipid side chains), mouse macrophages, read-out: EC50 (nM) (mouse)
[5] = Homo sapiens, THP-1, table of 133-139 (two lipid side chains), human THP-1 cells, read-out: EC50 (nM) (THP-1)
[6] = Macrophage, table of 133-139 (two lipid side chains), mouse macrophages, read-out: EC50 (nM) (mouse)
[7] = Homo sapiens, THP-1, Table 7, TNF-α release from human THP-1 cells, read-out: EC50 (nM) (THP-1)
[8] = Macrophage, Table 7, TNF-α release from mouse macrophages, read-out: EC50 (nM) (mouse)
[9] = Homo sapiens, THP-1, Table 3, TNF-α release from human THP-1 cells, read-out: EC50 (nM) (THP-1)
[10] = Macrophage, Table 3, TNF-α release from mouse macrophages, read-out: EC50 (nM) (mouse)
[11] = Homo sapiens, THP-1, Table 1, TNF-α release from human THP-1 cells, read-out: EC50 (nM) (THP-1)
[12] = Macrophage, Table 1, TNF-α release from mouse macrophages, read-out: EC50 (nM) (mouse)

Structure (SMILES): O=C(N[C@H]1C[C@@H]1c1ccccc1)[C@H]1CN(C(=O)c2ccc(C(=O)N3C[C@@H](C(=O)N[C@@H]4C[C@H]4c4ccccc4)[C@H](C(=O)N[C@@H]4C[C@H]4c4ccccc4)C3)cc2)C[C@@H]1C(=O)N[C@H]1C[C@@H]1c1ccccc1 [Compound 23, (3R,4R)-1-(4-((3S,4S)-3,4-Bis(((1R,2S)-2-phenyl-cyclopropyl)carbamoyl)-pyrrolidine-1-carbonyl)-benzoyl)—N^3,N^4-bis((1S,2R)-2-phenylcyclopropyl)-pyrrolidine-3,4-dicarboxamide]
- EC50 ([1]; Homo sapiens, THP-1, Scheme 1, footnote a, read-out: EC50 TNF-α release from human THP-1 cells): > 5000 nM
- EC50 ([2]; Mus musculus, Macrophage, Scheme 1, footnote b, read-out: EC50 TNF-α release from mouse macrophages): > 5000 nM

Structure (SMILES): CCCCNC(=O)[C@@H]1CN(C(=O)c2ccc(C(=O)N3C[C@@H](C(=O)NCCCC)[C@H](C(=O)NCCCC)C3)cc2)C[C@H]1C(=O)NCCCC [Compound 146, (3S,3′S,4S,4′S)-1,1′-Terephthaloylbis(N^3,N^4-dibutylpyrrolidine-3,4-dicarboxamide)]
- EC50 [1, 3]: > 5000 nM
- EC50 [2, 4]: > 5000 nM

Structure (SMILES): CCCCCCCCNC(=O)[C@@H]1CN(C(=O)c2ccc(C(=O)N3C[C@@H](C(=O)N[C@H]4C[C@@H]4c4ccccc4)[C@H](C(=O)N[C@H]4C[C@@H]4c4ccccc4)C3)cc2)C[C@H]1C(=O)NCCCCCCCC [Compound 137, (3S,4S)-1-(4-((3S,4S)-3,4-Bis(((1S,2R)-2-phenylcyclopropyl)carbamoyl)pyrrolidine-1-carbonyl)benzoyl)-N^3,N^4-dioctylpyrrolidine-3,4-dicarboxamide]
- EC50 [1, 5]: 0.17 nM
- EC50 [2, 6]: 10 nM

Structure (SMILES): CCCCCCCCCCCCNC(=O)[C@@H]1CN(C(=O)c2ccc(C(=O)N3C[C@@H](C(=O)NCCCCCCCCCCCC)[C@H](C(=O)NCCCCCCCCCCCC)C3)cc2)C[C@H]1C(=O)NCCCCCCCCCCCC [Compound 142, (3S,3′S,4S,4′S)-1,1′-Terephthaloylbis(N^3,N^4-didodecylpyrrolidine-3,4-dicarboxamide)]
- EC50 [1, 3]: > 5000 nM
- EC50 [2, 4]: > 5000 nM

Structure (SMILES): CCCCCCCCCCCCCCCCNC(=O)[C@@H]1CN(C(=O)c2ccc(C(=O)N3C[C@@H](C(=O)NCCCCCCCCCCCCCCCC)[C@H](C(=O)NCCCCCCCCCCCCCCCC)C3)cc2)C[C@H]1C(=O)NCCCCCCCCCCCCCCCC [Compound 140, (3S,3′S,4S,4′S)-1,1′-Terephthaloylbis(N^3,N^4-dihexadecylpyrrolidine-3,4-dicarboxamide)]
- EC50 [1, 3]: > 5000 nM
- EC50 [2, 4]: > 5000 nM

Structure (SMILES): CCCCCCCCCCCCCCCCNC(=O)C1CCN(C(=O)c2ccc(C(=O)N3C[C@@H](C(=O)N[C@H]4C[C@@H]4c4ccccc4)[C@H](C(=O)N[C@H]4C[C@@H]4c4ccccc4)C3)cc2)C1 (stereo in doubt) [Compound 129, (3S,4S)-1-(4-((S)-3-(Hexadecylcarbamoyl)-pyrrolidine-1-carbonyl)benzoyl)—N^3,N^4-bis((1S,2R)-2-phenylcyclopropyl)pyrrolidine-3,4-dicarboxamide]
- EC50 ([1]; table of 125-132 (one lipid side chain, R and S), human THP-1 cells, read-out: EC50 (nM) (THP-1)): 5 nM
- EC50 ([2]; table of 125-132 (one lipid side chain, R and S), mouse macrophages, read-out: EC50 (nM) (mouse)): > 5000 nM

Structure (SMILES): O=C(NCCc1ccc(F)cc1)[C@@H]1CN(C(=O)c2cccc(C(=O)N3C[C@@H](C(=O)NCCc4ccc(F)cc4)[C@H](C(=O)NCCc4ccc(F)cc4)C3)c2)C[C@H]1C(=O)NCCc1ccc(F)cc1 [Compound 103, (3S,3′S,4S,4′S)-1,1′-Isophthaloyl-bis-(N^3,N^4-bis(4-fluorophenethyl)pyrrolidine-3,4-dicarboxamide)]
- EC50 [1, 7]: > 5000 nM
- EC50 [2, 8]: > 5000 nM

Structure (SMILES): O=C(N[C@H]1C[C@@H]1c1ccccc1)[C@@H]1CN(C(=O)c2ccc3cc(C(=O)N4C[C@@H](C(=O)N[C@H]5C[C@@H]5c5ccccc5)[C@H](C(=O)N[C@H]5C[C@@H]5c5ccccc5)C4)ccc3c2)C[C@H]1C(=O)N[C@H]1C[C@@H]1c1ccccc1 [Compound 44, (3S,3′S,4S,4′S)-1,1′-(Naphthalene-2,6-dicarbonyl)bis(N^3,N^4-bis((1S,2R)-2-phenylcyclopropyl)-pyrrolidine-3,4-dicarboxamide)]
- EC50 ([1]; Homo sapiens, THP-1, Table 2, TNF-α release from human THP-1 cells, read-out: EC50 (nM) (THP-1)): 2 nM
- fold less active/potent than diprovocim-1 (3) ([1]; human THP-1 cells): > 10 fold
- EC50 ([2]; Macrophage, Table 2, TNF-α release from mouse macrophages, read-out: EC50 (nM) (mouse)): 380 nM

Structure (SMILES): O=C(N[C@H]1C[C@@H]1c1ccccc1)[C@@H]1CN(C(=O)c2ccc(C(=O)N3C[C@@H](C(=O)N[C@H]4C[C@@H]4c4ccccc4)[C@H](C(=O)N[C@H]4C[C@@H]4c4ccccc4)C3)c(Br)c2)C[C@H]1C(=O)N[C@H]1C[C@@H]1c1ccccc1 [Compound 58, (3S,3′S,4S,4′S)-1,1′-(2-Bromoterephthaloyl)-bis(N^3,N^4-bis((1S,2R)-2-phenylcyclopropyl)pyrrolidine-3,4-dicarboxamide)]
- EC50 [1, 9]: 5 nM
- EC50 [2, 10]: 10 nM

Structure (SMILES): O=C(N[C@H]1C[C@@H]1c1ccccc1)[C@@H]1CN(C(=O)/C=C/C(=O)N2C[C@@H](C(=O)N[C@H]3C[C@@H]3c3ccccc3)[C@H](C(=O)N[C@H]3C[C@@H]3c3ccccc3)C2)C[C@H]1C(=O)N[C@H]1C[C@@H]1c1ccccc1 [Compound 36, (3S,3′S,4S,4′S)-1,1′-Fumaroyl-bis(N^3,N^4-bis((1S,2R)-2-phenylcyclopropyl)pyrrolidine-3,4-dicarboxamide)]
- EC50 [1, 11]: > 5000 nM
- EC50 [2, 12]: > 5000 nM

Structure (SMILES): CCCCNC(=O)[C@@H]1CN(C(=O)c2ccc(C(=O)N3C[C@@H](C(=O)N[C@H]4C[C@@H]4c4ccccc4)[C@H](C(=O)N[C@H]4C[C@@H]4c4ccccc4)C3)cc2)C[C@H]1C(=O)NCCCC [Compound 139, (3S,4S)-1-(4-((3S,4S)-3,4-Bis(((1S,2R)-2-phenylcyclopropyl)carbamoyl)pyrrolidine-1-carbonyl)benzoyl)-N^3,N^4-dibutylpyrrolidine-3,4-dicarboxamide]
- EC50 [1, 5]: 50 nM
- EC50 [2, 6]: 360 nM

Structure (SMILES): CC(C)(C)OC(=O)COc1cc(C(=O)N2C[C@@H](C(=O)N[C@H]3C[C@@H]3c3ccccc3)[C@H](C(=O)N[C@H]3C[C@@H]3c3ccccc3)C2)ccc1C(=O)N1C[C@@H](C(=O)N[C@H]2CC2c2ccccc2)[C@H](C(=O)N[C@H]2C[C@@H]2c2ccccc2)C1 (stereo partly drawn) [Compound 147, tert-Butyl 2-(2,5-Bis((3S,4S)-3,4-bis(((1S,2R)-2-phenylcyclopropyl)carbamoyl)-pyrrolidine-1-carbonyl)phenoxy)acetate]
- EC50 ([1]; Homo sapiens, THP-1, table of functionalized derivatives 147-151, human THP-1 cells, read-out: EC50 (nM) (THP-1)): 40 nM
- EC50 ([2]; Macrophage, table of functionalized derivatives 147-151, mouse macrophages, read-out: EC50 (nM) (mouse)): 260 nM

Structure (SMILES): CCCCCCNC(=O)[C@@H]1CN(C(=O)c2ccc(C(=O)N3C[C@@H](C(=O)NCCCCCC)[C@H](C(=O)NCCCCCC)C3)cc2)C[C@H]1C(=O)NCCCCCC [Compound 145, (3S,3′S,4S,4′S)-1,1′-Terephthaloylbis(N^3,N^4-dihexylpyrrolidine-3,4-dicarboxamide)]
- EC50 [1, 3]: > 5000 nM
- EC50 [2, 4]: > 5000 nM

Structure (SMILES): O=C(N[C@H]1C[C@@H]1c1ccccc1)[C@@H]1CN(C(=O)[C@H]2CC[C@H](C(=O)N3C[C@@H](C(=O)N[C@H]4C[C@@H]4c4ccccc4)[C@H](C(=O)N[C@H]4C[C@@H]4c4ccccc4)C3)CC2)C[C@H]1C(=O)N[C@H]1C[C@@H]1c1ccccc1 [Compound 42, (3S,3′S,4S,4′S)-1,1′-(trans-1,4-Cyclohexane-dicarbonyl)bis(N^3,N^4-bis((1S,2R)-2-phenyl-cyclopropyl)pyrrolidine-3,4-dicarboxamide)]
- EC50 [1, 11]: > 5000 nM
- EC50 [2, 12]: > 5000 nM

Structure (SMILES): O=C(N[C@H]1C[C@@H]1c1ccccc1)[C@@H]1CN(C(=O)c2c(F)c(F)c(C(=O)N3C[C@@H](C(=O)N[C@H]4C[C@@H]4c4ccccc4)[C@H](C(=O)N[C@H]4C[C@@H]4c4ccccc4)C3)c(F)c2F)C[C@H]1C(=O)N[C@H]1C[C@@H]1c1ccccc1 [Compound 60, (3S,3′S,4S,4′S)-1,1′-(Perfluoroterephthaloyl)-bis(N^3,N^4-bis((1S,2R)-2-phenylcyclopropyl)pyrrolidine-3,4-dicarboxamide)]
- EC50 [1, 9]: 110 nM
- EC50 [2, 10]: > 5000 nM

Structure (SMILES): O=C(N[C@H]1C[C@@H]1c1ccccc1)[C@@H]1CN(C(=O)c2cc(Cl)c(C(=O)N3C[C@@H](C(=O)N[C@H]4C[C@@H]4c4ccccc4)[C@H](C(=O)N[C@H]4C[C@@H]4c4ccccc4)C3)cc2Cl)C[C@H]1C(=O)N[C@H]1C[C@@H]1c1ccccc1 [Compound 61, (3S,3′S,4S,4′S)-1,1′-(2,5-Dichloroterephthaloyl)-bis(N^3,N^4-bis((1S,2R)-2-phenylcyclopropyl)pyrrolidine-3,4-dicarboxamide)]
- EC50 [1, 9]: 360 nM
- EC50 [2, 10]: > 5000 nM

Structure (SMILES): O=C(NCCc1ccc(F)cc1)[C@@H]1CN(C(=O)C/C=C/CC(=O)N2C[C@@H](C(=O)NCCc3ccc(F)cc3)[C@H](C(=O)NCCc3ccc(F)cc3)C2)C[C@H]1C(=O)NCCc1ccc(F)cc1 [Compound 102, (3S,3′S,4S,4′S)-1,1′-((E)-Hex-3-enedioyl)bis-(N^3,N^4-bis(4-fluorophenethyl)pyrrolidine-3,4-dicarboxamide)]
- EC50 [1, 7]: > 5000 nM
- EC50 [2, 8]: > 5000 nM
